pIC50: −log10 of the molar value.
How the values were obtained:
[1] = biological target: T1, Neuropeptide Y receptor type 1 (Homo sapiens, UniProt P25929); experiment: NPY Y1-antagonistic activity in HEL cells by measuring the inhibition of porcine NPY (10 nM) stimulated increase in the intracellular [Ca2+] concentration in a FURA-assay.; format: functional, cell-based; conditions: for pIC50: read-out: IC50; for IC50: hel
T1 sequence (P25929 whole entry): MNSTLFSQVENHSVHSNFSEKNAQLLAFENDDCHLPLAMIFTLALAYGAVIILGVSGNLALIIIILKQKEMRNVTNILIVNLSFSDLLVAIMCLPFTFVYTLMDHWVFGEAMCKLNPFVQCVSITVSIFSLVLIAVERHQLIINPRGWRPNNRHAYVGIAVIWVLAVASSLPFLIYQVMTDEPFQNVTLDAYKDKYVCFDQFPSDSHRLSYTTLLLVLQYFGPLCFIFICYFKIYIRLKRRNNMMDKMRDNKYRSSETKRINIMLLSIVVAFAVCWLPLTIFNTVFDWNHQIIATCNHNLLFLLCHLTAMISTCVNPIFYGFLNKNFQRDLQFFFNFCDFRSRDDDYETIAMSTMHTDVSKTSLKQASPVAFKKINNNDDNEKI

[2] = biological target: T2, Neuropeptide Y receptor type 2 (Homo sapiens, UniProt P49146); experiment: Inhibition of binding of [3H]propionyl-NPY (1 nM) to Neuropeptide Y receptor type 2 in SMS-KAN cell membranes
T2 sequence (P49146 whole entry): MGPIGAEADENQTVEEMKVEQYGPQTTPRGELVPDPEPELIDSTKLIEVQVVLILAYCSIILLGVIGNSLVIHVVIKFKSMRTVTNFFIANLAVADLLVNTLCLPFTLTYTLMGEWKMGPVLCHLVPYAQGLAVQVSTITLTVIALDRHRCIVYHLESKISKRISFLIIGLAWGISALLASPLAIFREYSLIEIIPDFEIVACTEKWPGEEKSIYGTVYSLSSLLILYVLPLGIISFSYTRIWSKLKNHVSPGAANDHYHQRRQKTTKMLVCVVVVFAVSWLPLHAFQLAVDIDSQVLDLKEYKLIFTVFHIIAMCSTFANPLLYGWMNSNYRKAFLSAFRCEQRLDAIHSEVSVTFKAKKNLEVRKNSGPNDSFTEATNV

[3] = biological target: T3, Neuropeptide Y receptor type 5 (Homo sapiens, UniProt Q15761); experiment: Inhibition of binding of [3H]propionyl-NPY (1 nM) to Neuropeptide Y receptor type 5 in HEC-1-B cells; format: cell-based
T3 sequence (Q15761 whole entry): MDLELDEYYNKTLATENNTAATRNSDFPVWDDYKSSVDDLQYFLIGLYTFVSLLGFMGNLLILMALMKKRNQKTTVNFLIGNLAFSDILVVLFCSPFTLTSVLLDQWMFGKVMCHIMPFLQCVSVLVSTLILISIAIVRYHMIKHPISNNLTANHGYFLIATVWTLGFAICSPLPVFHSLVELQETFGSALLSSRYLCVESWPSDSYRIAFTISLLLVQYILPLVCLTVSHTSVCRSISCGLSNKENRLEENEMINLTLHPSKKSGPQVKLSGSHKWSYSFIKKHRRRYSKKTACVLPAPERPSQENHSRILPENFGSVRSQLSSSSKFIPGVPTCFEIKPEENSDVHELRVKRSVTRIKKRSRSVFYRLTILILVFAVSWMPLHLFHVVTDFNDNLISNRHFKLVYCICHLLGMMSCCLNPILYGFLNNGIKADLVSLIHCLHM

[4] = biological target: T1, Neuropeptide Y receptor type 1; experiment: Inhibition of binding of [3H]propionyl-NPY (1 nM) to Neuropeptide Y receptor type 1 in SK-N-MC cells; format: cell-based
[5] = biological target: Neuropeptide Y receptor type 1 (Homo sapiens) (UniProt P25929); experiment: NPY Y1-antagonistic activity in HEL cells by measuring the inhibition of porcine NPY (10 nM) stimulated increase in the intracellular [Ca2+] concentration in a FURA-assay;Inactive, less than 20% inhibition at […]

SMILES: N=C(N)NCCCC(NC(=O)C(c1ccccc1)c1ccccc1)C(=O)NCc1ccccc1 (configuration not stated)
- pIC50 [1]: 6.96

SMILES: N=C(NCCCc1ccccc1)NCCCC(NC(=O)Cc1ccc(-c2ccccc2)cc1)C(=O)N1CCCc2cc(O)ccc2C1 (configuration not stated)
- pIC50 [1]: 4.92
- pIC50 [2]: 4.11
- pIC50 [3]: 6.11
- pIC50 [4]: 4.66

SMILES: N=C(N)NCCCC(NC(=O)Cc1ccc(-c2ccccc2)cc1)C(=O)N[C@H]1CCc2ccccc21 (some centres not stated)
- IC50 [1]: Not Active

SMILES: N=C(N)NCCCC(NC(=O)C(c1ccccc1)c1ccccc1)C(=O)N[C@@H]1CCc2ccccc21 (some centres not stated)
- pIC50 [1]: 4.68

SMILES: N=C(N)NCCCC(NC(=O)C(c1ccccc1)c1ccccc1)C(=O)N[C@@H](C(N)=O)c1ccc(O)cc1 (some centres not stated)
- pIC50 [1]: 5.09

SMILES: N=C(N)NCCCC(NC(=O)C(c1ccccc1)c1ccccc1)C(=O)N[C@H]1CCc2ccccc21 (some centres not stated)
- pIC50 [1]: 5.85

SMILES: N=C(NCCCc1ccccc1)NCCCC(NC(=O)Cc1ccc(-c2ccccc2)cc1)C(=O)N1CCCc2ccccc2C1 (configuration not stated)
- IC50 [1]: Not Active

SMILES: N=C(N)NCCCC(NC(=O)C(c1ccc(Cl)cc1)c1ccc(Cl)cc1)C(=O)N1CCCc2ccccc2C1 (configuration not stated)
- pIC50 [1]: 5.96

SMILES: N=C(N)NCCCC(NC(=O)C(c1ccccc1)(c1ccccc1)c1ccccc1)C(=O)NCc1ccccc1 (configuration not stated)
- IC50 [5]: Not Active

SMILES: N=C(N)NCCCC(NC(=O)Cc1ccc(-c2ccccc2)cc1)C(=O)NCc1ccccc1 (configuration not stated)
- pIC50 [1]: 4.66

SMILES: N=C(N)NCCCC(NC(=O)C(c1ccccc1)c1ccccc1)C(=O)NCCc1ccccn1 (configuration not stated)
- pIC50 [1]: 4.94

SMILES: N=C(N)NCCCC(NC(=O)C(c1ccccc1)c1ccc(Cl)cc1)C(=O)NCc1ccccc1 (configuration not stated)
- pIC50 [1]: 7.09
- pIC50 [2]: 4.01
- pIC50 [3]: 5.59
- pIC50 [4]: 6.77

SMILES: C[C@@H](NC(=O)C(CCCNC(=N)N)NC(=O)C(c1ccccc1)c1ccccc1)c1ccccc1 (some centres not stated)
- pIC50 [1]: 6.70
- pIC50 [2]: 3.75
- pIC50 [3]: 4.32
- pIC50 [4]: 6.82

SMILES: N=C(N)NCCCC(NC(=O)C(c1ccccc1)c1ccc(Cl)cc1)C(=O)N[C@H]1CCc2ccccc21 (some centres not stated)
- pIC50 [1]: 5.52
- pIC50 [2]: 4.23
- pIC50 [3]: 4.92
- pIC50 [4]: 5.28

SMILES: N=C(N)NCCCC(NC(=O)C(c1ccc(Cl)cc1)c1ccc(Cl)cc1)C(=O)NCc1ccccc1 (configuration not stated)
- pIC50 [1]: 7.00

SMILES: N=C(N)NCCCC(NC(=O)C(c1ccccc1)c1ccccc1)C(=O)N[C@H](CO)c1ccccc1 (some centres not stated)
- pIC50 [1]: 6.05
- pIC50 [2]: 3.27
- pIC50 [3]: 4.17
- pIC50 [4]: 6.74

SMILES: N=C(N)NCCCC(NC(=O)Cc1ccc(-c2ccccc2)cc1)C(=O)N1CCCc2ccccc2C1 (configuration not stated)
- pIC50 [1]: 4.12

SMILES: N=C(N)NCCCC(NC(=O)C(c1ccccc1)c1ccccc1)C(=O)N[C@@H](C(N)=O)c1ccccc1 (some centres not stated)
- pIC50 [1]: 5.34
- pIC50 [2]: < 3.40
- pIC50 [3]: 3.79
- pIC50 [4]: 5.62

SMILES: N=C(N)NCCCC(NC(=O)C(c1ccccc1)c1ccccc1)C(=O)N1CCCc2cc(O)ccc2C1 (configuration not stated)
- pIC50 [1]: 6.55
- pIC50 [2]: 3.61
- pIC50 [3]: 4.60
- pIC50 [4]: 6.17

SMILES: N=C(N)NCCCC(NC(=O)C(c1ccccc1)(c1ccccc1)c1ccccc1)C(=O)N1CCCc2ccccc2C1 (configuration not stated)
- pIC50 [1]: 4.29

SMILES: N=C(N)NCCCC(NC(=O)C(c1ccccc1)c1ccccc1)C(=O)N[C@@H]1C[C@H](CO)c2ccccc21 (some centres not stated)
- IC50 [5]: Not Active

SMILES: C[C@H](NC(=O)C(CCCNC(=N)N)NC(=O)C(c1ccccc1)c1ccccc1)c1ccccc1 (some centres not stated)
- pIC50 [1]: 5.60

SMILES: N=C(N)NCCCC(NC(=O)C(c1ccc(Cl)cc1)c1ccc(Cl)cc1)C(=O)N[C@H]1CCc2ccccc21 (some centres not stated)
- pIC50 [1]: < 5.00

SMILES: N=C(N)NCCCC(NC(=O)C(c1ccccc1)c1ccccc1)C(=O)N[C@H](C(N)=O)c1ccccc1 (some centres not stated)
- pIC50 [1]: 5.12

SMILES: N=C(N)NCCCC(NC(=O)C(c1ccccc1)c1ccc(Cl)cc1)C(=O)N1CCCc2ccccc2C1 (configuration not stated)
- pIC50 [1]: 5.96

SMILES: N=C(N)NCCCC(NC(=O)C(c1ccccc1)c1ccccc1)C(=O)NCc1ccccn1 (configuration not stated)
- pIC50 [1]: 5.43

SMILES: N=C(N)NCCCC(NC(=O)C(c1ccccc1)c1ccccc1)C(=O)N1CCCc2ccccc2C1 (configuration not stated)
- pIC50 [1]: 5.66

SMILES: N=C(N)NCCCC(NC(=O)C(c1ccccc1)c1ccccc1)C(=O)N[C@@H](CO)c1ccccc1 (some centres not stated)
- pIC50 [1]: 4.65

SMILES: N=C(N)NCCCC(NC(=O)C(c1ccccc1)c1ccccc1)C(=O)NCc1ccc(O)cc1 (configuration not stated)
- pIC50 [2]: < 4.00
- pIC50 [3]: 4.10

SMILES: CC(NC(=O)C(CCCN=C(N)N)NC(=O)C(c1ccccc1)c1ccccc1)c1ccc(O)cc1 (racemic)
- pIC50 [1]: 7.22
- pIC50 [2]: 3.24
- pIC50 [3]: 4.12
- pIC50 [4]: 7.72

SMILES: N=C(N)NCCCC(NC(=O)C(c1ccccc1)c1ccccc1)C(=O)NCC1CCCCN1 (racemic)
- IC50 [5]: Not Active

SMILES: N=C(N)NCCCC(NC(=O)C(c1ccccc1)c1ccccc1)C(=O)NC1CCc2cc(O)ccc21 (racemic)
- pIC50 [1]: 6.00
